From a melting point compilation (Tetko et al.; mined from patent text by program, amines drawn as free bases though some values may be those of a salt) come the findings set out here.

The melting point is the temperature, or range, at which the solid turns liquid.

`COc1cc(Nc2c(C#N)cnc3cc(C#CCCN4CCOCC4)c(OC)cc23)c(Cl)cc1Cl` displayed a melting point of 140 to 142 °C.

Turning to `Cc1ccc2c(c1F)N(C1CC1)C=NS2(=O)=O`, the melting point lay within 189 to 192 °C.

Compound `CCCc1nc2c(N)nc3ccccc3c2n1CCCC(C)N(OC)C(C)=O` (centres undefined) registered a melting point of 140 to 142 °C.

Compound `CC(=O)Nc1ccc(-c2cnc3c(c2)N(Cc2cc(Cl)ccc2C(F)(F)F)CCN3)cc1` had a melting point of 244 °C.

Compound `COc1cccc2c(=O)n3nc(C(N)=O)cc3[nH]c12` came in with a melting point of 265 to 270 °C.

`COc1cc(-c2nc3ccccc3n2Cc2ccc(Cl)cc2Cl)cc(OC)c1OC` returned a melting point of 186 °C.

For `CC1(c2ccc3cc(Br)ccc3c2)OCCO1`, the melting point was in the range of 80 to 82 °C.

Compound `N#Cc1ccc(-c2ccno2)cc1` came in with a melting point of 148 to 149 °C.

In the case of `C=CC(=O)OCCCCCCOc1ccc(C=O)cc1`, the melting point worked out at 30 °C.

The compound `ClCc1ccc(C#Cc2ccccc2)cc1` yielded a melting point of 61.5 to 63.5 °C.

Take `Cc1ccc(C(=O)NC(C)(C(N)=O)C(C)C)cc1` (centres undefined): the melting point lay within 145 to 152 °C.

With `CCCCN(CCCC)c1ccc(C2(c3cc(Nc4ccccc4)ccc3OC)OC(=O)c3ccccc32)c(O)c1` (centres undefined), the melting point lay within 148 to 152 °C.

Turning to `CCCOc1cccnc1C(O)c1ccc(N)cc1` (centres undefined), the melting point lay within 156 to 157 °C.

In turn, `Nc1cccc(Cn2c(-c3ccc(Nc4cncnc4)cc3)ccc2-c2ccccc2Cl)n1` showed a melting point of 88 to 90 °C.

`COc1cccc(Oc2c(Cl)nc(-c3cccs3)nc2NS(=O)(=O)c2ccc(C(C)(C)C)cc2)c1` came in with a melting point of 206 to 207 °C.

Turning to `CC(C)(C)C(c1csc2ccccc12)[C@@H](OC(N)=O)c1nc(-c2ccccc2)c[nH]1` (some centres undefined), the melting point fell in the range of 116 to 120 °C.

In the case of `COC(=O)NC(C)c1cccc(-c2ccc(OC)cc2)c1` (centres undefined), the melting point was in the range of 117 to 119 °C.

Compound `COc1ccc(COc2ccccc2Br)cc1` had a melting point of 87 to 90 °C.

In the case of `COCCn1cc(C2CCN(CCOc3ccccc3C(=O)O)CC2)c2ccccc21`, the melting point is 139 to 140 °C.

Take `CCC(C(=O)O)c1cccc(C(=O)c2cc3cc(C(=O)O)sc3s2)c1` (centres undefined): the melting point came to 240 °C.

The compound `COC(=O)c1nc2cc(Cn3ccnc3)ccc2[nH]1` yielded a melting point of 228 °C.

`Cc1ccc(CNC(=O)c2ccc(F)cc2OCC(=O)O)cc1[N+](=O)[O-]` gave a melting point of 159 to 160 °C.

`COc1ccc(C2=NN(CCCCCCCCBr)C(=O)[C@H]3CCCC[C@@H]23)cc1OC` (relative stereo) gave a melting point of 58 to 60 °C.

With `Cc1nc(-c2cccc(NC(=O)N3CCc4c(cnc5[nH]ncc45)C3)c2)no1`, the melting point was > 140 °C.

`COc1cc2cc(Cl)nc(N3CCN(C(=O)Nc4ccc([N+](=O)[O-])cc4)CC3)c2cc1OC` gave a melting point of 227 to 228 °C.

Compound `N#Cc1cc(F)ccc1N1CCN(Cc2cn3cc(Cl)ccc3n2)CC1` returned a melting point of 179 to 180 °C.

`CN(Cc1cc2c(=O)c(C(=O)NCc3ccc(Cl)cc3)cn(C)c2o1)CC(O)c1ccco1` (centres undefined) displayed a melting point of 94 to 101 °C.

The compound `CCOC(=O)C(C)(C)c1ccc(OCc2ccccc2)cc1` displayed a melting point of 54 to 55 °C.

The compound `Cc1cc(N2CC=C(C(=O)OC(C)C)CC2)c2cccc(Br)c2n1` yielded a melting point of 130 to 131 °C.

`CCNc1ccc(F)c(-c2cccnc2)c1F` displayed a melting point of 79 to 80 °C.

Compound `CCCS(=O)(=O)c1sc(C(N)=O)c2c1-c1c(cnn1C)CC2` had a melting point of 142 to 143 °C.

The compound `CCc1cccc2c1N(CC(=O)N1CC3CCC(CC3)C1)C(=O)C(NC(=O)Nc1cccc(-c3nnn[nH]3)c1)N=C2c1ccccc1F` (centres undefined) displayed a melting point of 226 to 232 °C.

`O=C(Nc1cc(Cl)c(N2CCNCC2)c(Cl)c1)c1ccc(F)c(OCc2cccnc2)c1` returned a melting point of 81 to 85 °C.

`NC[C@H](O)c1ccc2nnnn2c1` gave a melting point of 153 to 154 °C.

`COc1ccc(C2=NN(c3nc4ccccc4s3)C(=O)[C@H]3CC=CC[C@@H]23)cc1OC` (relative stereo) displayed a melting point of 176 to 177 °C.

In turn, `Cc1oc(-c2ccccc2)nc1COc1ccc(Cn2cc(CCC(=O)O)c(OCc3ccccc3)n2)cc1` gave a melting point of 108 to 109 °C.

In the case of `C=NOCc1ccc(CCc2csc(NC(C)=O)n2)cc1`, the melting point fell in the range of 136 to 137 °C.

In the case of `CCCCCS(=O)(=O)NC(=O)CCc1ccc(OCCOC)cc1OCC1CCCO1` (centres undefined), the melting point is 57.8 to 58.9 °C.

Consider `O=C(Nc1ccc2ncnc(Nc3cc(Cl)c(Cl)cc3F)c2c1)C(Cl)Cl`, for which the melting point is > 300 °C.

With `CC(C)n1c(=O)c2cc(C(=O)O)cn2c2ccccc21`, the melting point is 238 to 240 °C.

With `NS(=O)(=O)c1cc(C(=O)O)cc(NCc2ccccc2)c1NCCc1ccccc1`, the melting point stood at 203 °C.

The compound `CCC1COc2ccccc2C(=O)C1=O` (centres undefined) gave a melting point of 63 to 66 °C.

In the case of `CCCN(c1ccncc1[N+](=O)[O-])n1ccc2ccccc21`, the melting point lay within 84 to 86 °C.

The compound `CC(C)(C)OC(=O)CC(=O)CO[C@H]1NC(=O)[C@@H]1NC(=O)c1ccccc1` showed a melting point of 142 °C.

Compound `CC1(C)CC(NC(=O)CCC(=O)O)CC(C)(C)N1OC1CCCCC1` displayed a melting point of 136 to 138 °C.

In the case of `NS(=O)(=O)c1cc(Cl)cc(Cl)c1O`, the melting point was > 225 °C.

The compound `CN(C)Cc1ccc(CSCCNC2=NS(=O)(=O)N=C2N2CCCC2)o1` displayed a melting point of 151 to 152 °C.

`CSc1ccc(C(O)CBr)cc1Cl` (centres undefined) gave a melting point of 86 to 87 °C.

In the case of `Cc1ccnc(C=Cc2ccccc2)n1`, the melting point fell in the range of 65 to 67 °C.

With `COc1cc(OC)nc(CC#N)n1`, the melting point fell in the range of 65 to 67 °C.

`COc1ccc2ncc(CO)c(OC(C)C)c2c1` registered a melting point of 66 to 68 °C.

`O=C(COc1cc(-c2ccccc2F)nc2ccccc12)N1CCOCC1` yielded a melting point of 145 °C.

Turning to `c1cc2c3c(c1)nc(SCc1ccncc1)n3CCC2`, the melting point lay in the range of 105 to 107 °C.

For the compound `COCNC(=O)c1snc(Cl)c1Cl`, the melting point lay in the range of 79 to 87 °C.

With `CS(=O)(=O)c1cc(C(=O)O)cc(NCc2ccco2)c1Cl`, the melting point is 216 °C.

With `O=C(Nc1ccc(-n2nc(-c3ccccc3)c3cccnc32)cc1)C(F)(F)F`, the melting point was 172 to 174 °C.

`COC(=O)C1=Cc2cc(-c3ccc(F)cc3)ccc2S(=O)(=O)CC1`: the melting point was in the range of 180 to 183 °C.

With `O=C(CCc1cccnc1)C12CC3CC(CC(C3)C1)C2`, the melting point lay within 43 to 44.5 °C.

`COC1CCc2c(C)c(O)c(C)c(C)c2O1` (centres undefined) yielded a melting point of 108 to 110 °C.

As to `C#Cc1cc2c(cc1C=O)C(C)(C)CCC2(C)C`, the melting point was in the range of 94 to 94.6 °C.

Compound `O=C(NCC1CNc2ccccc2C1)OCc1ccccc1` (centres undefined) showed a melting point of 115 to 116 °C.

Regarding `Nc1c([N+](=O)[O-])cc(F)c(Cl)c1Br`, the melting point lay within 146 to 147 °C.

Regarding `CCC(=O)NCC1CC1c1c(Br)ccc2nn(C)cc12` (centres undefined), the melting point was in the range of 119 to 121 °C.

The compound `CCC(O)(CC)c1ccc(Cl)c2nc3n(c12)CCCN3c1ccc(Cl)cc1C(F)(F)F` came in with a melting point of 178 to 180 °C.

Consider `O=C(O)/C=C/c1ccc(Oc2c(-c3ccccc3)c(CCC(F)(F)F)cc3cc(O)ccc23)cc1`, for which the melting point was 118 to 120 °C.

The compound `COc1cc(S(C)(=O)=O)ccc1-c1nc2cc3c(cc2[nH]1)NC(=O)C3(C)C` came in with a melting point of 235 to 237 °C.

As for `N#Cc1nc2ccc(Cl)cc2c2c1ncn2-c1ccccc1Cl`, the melting point lay within 248 to 250 °C.

The compound `N#CCOc1c(Br)cc(Br)cc1C=O` came in with a melting point of 125 to 130 °C.

Take `O=c1c2cc(F)c(Cl)nc2n(-c2ccccc2F)c(=O)n1OCc1ccccc1`: the melting point is 199 to 200 °C.

`CCOC(=O)C(=CNc1nncs1)C(=O)c1cc(F)c(Cl)nc1Cl` returned a melting point of 137 to 140 °C.

`COc1cc(OC)c(N2CCCC2)cc1/C=C/C(=O)c1ccc(S(=O)(=O)NCCCN2CCN(C)CC2)cc1` registered a melting point of 64 to 68 °C.

Take `CCN(CC)CCCNC(=O)Cn1ncc(-c2ccc(Cl)cc2)c1-c1ccccc1`: the melting point is 104 to 105 °C.

`COc1cc(Nc2c(C#N)cnc3cc(-c4cc(CN5CCOCC5)c(CN5CCOCC5)s4)c(OC)cc23)c(Cl)cc1Cl` yielded a melting point of 120 to 124 °C.

Regarding `CN1CCC(c2nn(-c3ccccc3C(F)(F)F)c3ccccc23)CC1`, the melting point is 110 to 111 °C.

In turn, `CCCCOc1c(CO)n(CC2CC2)c(=O)c2ccc(Br)cc12` showed a melting point of 111 to 112 °C.

As for `CCCC(Cl)(Cl)C(NC(=O)c1ccc(Cl)cc1)Nc1c(Nc2cccnc2)c(=O)c1=O` (centres undefined), the melting point lay in the range of 258 to 259 °C.

For the compound `Cc1ccc(N2C(=O)C(O)=C(C(=O)c3ccc(C(C)C)cc3)C2c2ccc(-n3cncn3)cc2)nn1` (centres undefined), the melting point worked out at 284 °C.

Regarding `COc1ccc(NCCCN)c2c1C(=O)c1ccccc1C2=O`, the melting point fell in the range of 108 to 110 °C.

`O=Cc1cccc(OCc2ccc3ccccc3n2)c1` displayed a melting point of 48 to 53 °C.

The compound `Cc1c(-c2ccccc2)oc2c(S)cccc2c1=O` had a melting point of 115 to 118 °C.

Compound `Cc1[nH]cnc1CSCCNC1=C([N+](=O)[O-])CCCN1` registered a melting point of 206 °C.

In turn, `N#Cc1ccc(NN)cc1F` registered a melting point of 136 °C.

As to `CSC(C)(C(=O)O)c1ccc2oc(Cc3nc(-c4ccccc4)oc3C)cc2c1` (centres undefined), the melting point is 178 to 179 °C.

`NS(=O)(=O)c1cc(C(=O)O)cc([N+](=O)[O-])c1-c1ccccc1` displayed a melting point of 119 to 121 °C.

`COC(=O)C(=O)c1ccccc1Nc1c(Cl)cccc1Cl` registered a melting point of 124 to 126 °C.

Take `COc1ccc(CCNCC(O)COc2ccc(-c3nc(-c4cccs4)c[nH]3)cc2)cc1OC` (centres undefined): the melting point fell in the range of 127 to 129 °C.

In turn, `CCSc1cc(C)nc(SCC)c1NC(=O)CCCCSc1nc2c(C)c(Cl)cc(C(C)C)c2o1` had a melting point of 141 to 142 °C.

With `COc1ccc(N(N)c2nc(OCc3cccc(OC)c3)ncc2F)cc1`, the melting point lay within 96 to 100 °C.

For the compound `C#CCOC(=O)C=C(C)C=CC=C(C)C=Cc1c(C)cc(OC)c(C)c1C`, the melting point was in the range of 94 to 95 °C.
